Assay results as given in US20210330611A1, “THERAPY FOR NEUROLOGICAL DISEASES/DISORDERS” (priority 2020, published 2021).
Counter-ions that a name gives are not always drawn. Like-named read-outs stand apart in the source and are kept apart here.

Assays:
[1] = test system: fibrin-induced microglia activation; assay: Image-based assay of fibrin-induced microglia activation (HTS and dose response); format: cell-based, rat; settings: for inhibition at 10 µM: Rattus norvegicus, Microglia, read-out: Fibrin % inhibition
[2] = test system: LPS-induced microglia activation; assay: Image-based assay of LPS-induced microglia activation (HTS and dose response); format: cell-based, rat
[3] = test system: fibrin- and LPS-induced microglia activation; assay: cells; format: cell-based, rat
[4] = test system: primary rat microglia;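 for Fibrin % cell toxicity: share of dead cells sized under 150 µm2 at 10 µM in fibrin-stimulated microglia HTS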
[5] = test system: primary rat microglia; remark: listed apart in the source;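 for Fibrin % cell toxicity: share of dead cells sized under 150 µm2 at 10 µM in fibrin-stimulated microglia HTS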
[6] = Rattus norvegicus, Microglia, read-out: LPS % inhibition
[7] = primary microglia HTS, fibrin stimulation, compounds at 10 μM
[8] = Rattus norvegicus, Microglia, primary microglia HTS, LPS stimulation, compounds at 10 μM; read-out: LPS % inhibition
[9] = primary HTS, 10 μM, fibrin-stimulated primary microglia
[10] = Rattus norvegicus, Microglia, primary HTS, 10 μM, LPS-stimulated primary microglia; read-out: LPS % inhibition
[11] = primary microglia HTS, 10 μM, fibrin-stimulated, cell size >800 μm^2 as marker of activation
[12] = HTS of 1907 compounds, quadrant by fibrin and LPS inhibition
[13] = primary microglia HTS, fibrin stimulation, increased cell size (>800 μm^2) as marker of activation
[14] = Rattus norvegicus, Microglia, 48 h, primary microglia HTS, LPS stimulation; increased cell size (>800 μm^2) as marker of activation; read-out: LPS % inhibition
[15] = quadrant by fibrin and LPS inhibition in HTS of 1907 compounds
[16] = quadrant by fibrin and LPS inhibition, HTS at 10 μM
[17] = Rattus norvegicus, Microglia, 48 h, read-out: LPS % inhibition
[18] = primary microglia HTS, 10 μM, LPS-stimulated, cell size >800 μm^2 as marker of activation
[19] = primary microglia HTS, fibrin stimulation, activation = cell size >800 μm2
[20] = Rattus norvegicus, Microglia, 48 h, primary microglia HTS, LPS stimulation, activation = cell size >800 μm2; read-out: LPS % inhibition
[21] = primary microglia HTS, fibrin stimulation, cell size >800 μm2 as marker of activation
[22] = classification by fibrin and LPS inhibition in HTS

O=C(O)CCCC[C@@H]1SC[C@@H]2NC(=O)N[C@@H]21 [Biotin]
inhibition at 10 µM [1]: 24%
inhibition at 10 µM [2, 6]: 12%
Quadrant (FIG. 5b) [3]: Q4
Fibrin % cell toxicity ([4]; rat): 1%
LPS % cell toxicity ([5]; rat): 0%

CN(C)CC(c1ccc(O)cc1)C1(O)CCCCC1 (centres unmarked) [Desvenlafaxine]
inhibition at 10 µM [1, 7]: 13%
inhibition at 10 µM [2, 8]: 3%
Quadrant (FIG. 5b) ([3]; classification by fibrin and LPS inhibition, HTS at 10 μM): Q4
Fibrin % cell toxicity ([4]; rat): 1%
LPS % cell toxicity ([5]; rat): 1%

Cc1ccc(-c2cc(C(F)(F)F)nn2-c2ccc(S(N)(=O)=O)cc2)cc1 [Celecoxib]
inhibition at 10 µM [1, 9]: -31%
inhibition at 10 µM [2, 10]: 21%
Quadrant (FIG. 5b) ([3]; primary HTS, 10 μM): Q4
Fibrin % cell toxicity ([4]; rat): 0%
LPS % cell toxicity ([5]; rat): 0%

CC[C@]1(O)C[C@@H]2CN(CCc3c([nH]c4ccccc34)[C@@](C(=O)OC)(c3cc4c(cc3OC)N(C)[C@H]3[C@@](O)(C(N)=O)[C@H](O)[C@]5(CC)C=CCN6CC[C@]43[C@@H]65)C2)C1 [Vindesine, Vindesine Sulfate]
Fibrin % inhibition ([1]; 10 µM): 106%
LPS % inhibition ([2]; 10 µM): 102%
Quadrant (FIG. 5b) [3]: Q2
Fibrin % cell toxicity [4]: 30%
LPS % cell toxicity [5]: 9%

N[C@@H](Cc1ccc(O)cc1)C(=O)O [Tyrosine]
inhibition at 10 µM [1, 11]: -7%
inhibition at 10 µM ([2]; Rattus norvegicus, Microglia, primary microglia HTS, 10 μM, LPS-stimulated, cell size >800 μm^2 as marker of activation; read-out: LPS % inhibition): 21%
Quadrant (FIG. 5b) [3, 12]: Q4
Fibrin % cell toxicity ([4]; rat): 1%
LPS % cell toxicity ([5]; rat): 1%

COc1c(N2C[C@@H]3CCCN[C@@H]3C2)c(F)cc2c(=O)c(C(=O)O)cn(C3CC3)c12 [Moxifloxacin Hydrochloride]
inhibition at 10 µM [1, 13]: 7%
inhibition at 10 µM [2, 14]: 14%
Quadrant (FIG. 5b) [3, 15]: Q4
Fibrin % cell toxicity ([4]; rat): 1%
LPS % cell toxicity ([5]; rat): 0%

NCCc1ccc(O)c(O)c1 [Dopamine]
inhibition at 10 µM [1]: -17%
inhibition at 10 µM [2, 6]: 9%
Quadrant (FIG. 5b) [3]: Q4
Fibrin % cell toxicity ([4]; rat): 1%
LPS % cell toxicity ([5]; rat): 0%

OC(c1cc(C(F)(F)F)nc2c(C(F)(F)F)cccc12)C1CCCCN1 (centres unmarked) [Mefloquine]
inhibition at 10 µM [1, 13]: -18%
inhibition at 10 µM [2, 14]: 13%
Quadrant (FIG. 5b) [3, 15]: Q4
Fibrin % cell toxicity ([4]; rat): 1%
LPS % cell toxicity ([5]; rat): 0%

N=C(N)NC(=O)c1nc(Cl)c(N)nc1N [Amiloride]
inhibition at 10 µM [1, 7]: 20%
inhibition at 10 µM [2, 8]: 7%
Quadrant (FIG. 5b) [3, 16]: Q4
Fibrin % cell toxicity ([4]; rat): 1%
LPS % cell toxicity ([5]; rat): 0%

CCOC(=O)OC(C)OC1=C(C(=O)Nc2ccccn2)N(C)S(=O)(=O)c2ccccc21 (centres unmarked) [Ampiroxicam]
inhibition at 10 µM [1, 7]: -9%
inhibition at 10 µM [2, 8]: 14%
Quadrant (FIG. 5b) [3, 16]: Q4
Fibrin % cell toxicity ([4]; rat): 1%
LPS % cell toxicity ([5]; rat): 0%

Cn1c(=O)c2[nH]cnc2n(C)c1=O [Aminophylline, Theophylline]
Fibrin % inhibition ([1]; 10 µM): 35%
LPS % inhibition ([2]; 10 µM): 25%
Quadrant (FIG. 5b) [3]: Q4
Fibrin % cell toxicity [4]: 1%
LPS % cell toxicity [5]: 0%

CC(=O)Nc1ccccc1 [Acetanilide]
inhibition at 10 µM [1]: -31%
inhibition at 10 µM [2, 6]: 9%
Quadrant (FIG. 5b) [3]: Q4
Fibrin % cell toxicity ([4]; rat): 0%
LPS % cell toxicity ([5]; rat): 0%

Oc1ccc2c3c1O[C@H]1[C@@H](O)CC[C@@]4(O)[C@@H](C2)N(CC2CCC2)CC[C@]314 [Nalbuphine Hydrochloride]
Fibrin % inhibition [1]: −11%
LPS % inhibition [2]: 15%
Quadrant (FIG. 5b) [3]: Q4
Fibrin % cell toxicity ([4]; rat): 1%
LPS % cell toxicity ([5]; rat): 0%

C[C@H]1O[C@@H](n2cc(F)c(=O)[nH]c2=O)[C@H](O)[C@@H]1O [5-fluoro-5′-deoxyuridine, Doxifluridine]
Fibrin % inhibition [1, 7]: −27%
LPS % inhibition ([2]; primary microglia HTS, LPS stimulation, compounds at 10 μM): 9%
Quadrant (FIG. 5b) [3, 16]: Q4
Fibrin % cell toxicity [4]: 1%
LPS % cell toxicity [5]: 0%

Cn1cc[nH]c1=S [Methimazole]
inhibition at 10 µM [1]: -29%
inhibition at 10 µM [2, 17]: 12%
Quadrant (FIG. 5b) [3]: Q4
Fibrin % cell toxicity ([4]; rat): 0%
LPS % cell toxicity ([5]; rat): 0%

Vitamin A
Fibrin % inhibition [1, 11]: 15%
LPS % inhibition [2, 18]: 17%
Quadrant (FIG. 5b) [3, 12]: Q4
Fibrin % cell toxicity [4]: 1%
LPS % cell toxicity [5]: 0%

CC1=C(/C=C/C(C)=C/C=C/C(C)=C/C(=O)O)C(C)(C)CCC1 [Tretinon, Tretinoin]
Fibrin % inhibition [1, 11]: 27%
LPS % inhibition [2, 18]: 34%
Quadrant (FIG. 5b) [3, 12]: Q4
Fibrin % cell toxicity [4]: 1%
LPS % cell toxicity [5]: 1%

COC1=CC(=O)C[C@@H](C)[C@]12Oc1c(Cl)c(OC)cc(OC)c1C2=O [Griseofulvin]
inhibition at 10 µM [1, 19]: 9%
inhibition at 10 µM [2, 20]: 13%
Quadrant (FIG. 5b) [3, 15]: Q4
Fibrin % cell toxicity ([4]; rat): 1%
LPS % cell toxicity ([5]; rat): 0%

CCCN1CCCC[C@H]1C(=O)Nc1c(C)cccc1C [Ropivacaine, Ropivacaine Hydrochloride]
Fibrin % inhibition [1, 21]: 18%
LPS % inhibition [2]: 5%
Quadrant (FIG. 5b) [3, 22]: Q4
Fibrin % cell toxicity [4]: 1%
LPS % cell toxicity [5]: 0%

N[C@@H]1C[C@H]1c1ccccc1.N[C@H]1C[C@@H]1c1ccccc1.O=S(=O)(O)O [Tranylcypromine Sulfate]
Fibrin % inhibition ([1]; 10 µM): 3%
LPS % inhibition ([2]; 10 µM): 17%
Quadrant (FIG. 5b) [3]: Q4
Fibrin % cell toxicity [4]: 0%
LPS % cell toxicity [5]: 0%

Oc1cccc(O)c1 [Resorcinol]
inhibition at 10 µM [1, 21]: -4%
inhibition at 10 µM ([2]; Rattus norvegicus, Microglia, 48 h, primary microglia HTS, LPS stimulation, cell size >800 μm2 as marker of activation; read-out: LPS % inhibition): 8%
Quadrant (FIG. 5b) [3, 22]: Q4
Fibrin % cell toxicity ([4]; rat): 0%
LPS % cell toxicity ([5]; rat): 0%

FC(F)(F)C(Cl)Br (centres unmarked) [Halothane]
inhibition at 10 µM [1, 19]: 17%
inhibition at 10 µM [2, 20]: 17%
Quadrant (FIG. 5b) [3, 15]: Q4
Fibrin % cell toxicity ([4]; rat): 1%
LPS % cell toxicity ([5]; rat): 0%

CC(=O)[C@H]1CC[C@H]2[C@@H]3CCC4=CC(=O)CC[C@]4(C)[C@H]3CC[C@]12C [Progesterone]
inhibition at 10 µM [1, 21]: 36%
inhibition at 10 µM ([2]; Rattus norvegicus, Microglia, 48 h; read-out: LPS % inhibition): 36%
Quadrant (FIG. 5b) [3, 22]: Q4
Fibrin % cell toxicity ([4]; rat): 1%
LPS % cell toxicity ([5]; rat): 0%

COc1cc2c(c(OC)c1OC)-c1ccc(OC)c(=O)cc1[C@@H](NC(C)=O)CC2 [Colchicine, reference compound]
inhibition at 10 µM [1]: 114%
inhibition at 10 µM [2, 17]: 113%
Activity [3]: fib/LPS
Quadrant (FIG. 5b) [3]: Q2
Fibrin % cell toxicity ([4]; rat): 12%
LPS % cell toxicity ([5]; rat): 10%

NCCS [Cysteamine]
inhibition at 10 µM [1]: 9%
inhibition at 10 µM [2, 6]: 12%
Quadrant (FIG. 5b) [3]: Q4
Fibrin % cell toxicity ([4]; rat): 0%
LPS % cell toxicity ([5]; rat): 0%

CC(C)(C#N)c1cc(Cn2cncn2)cc(C(C)(C)C#N)c1 [Anastrozole]
inhibition at 10 µM [1, 7]: 31%
inhibition at 10 µM [2, 8]: 16%
Quadrant (FIG. 5b) [3, 16]: Q4
Fibrin % cell toxicity ([4]; rat): 1%
LPS % cell toxicity ([5]; rat): 0%

C=C(c1ccc(C(=O)O)cc1)c1cc2c(cc1C)C(C)(C)CCC2(C)C [Bexarotene]
inhibition at 10 µM [1, 9]: -3%
inhibition at 10 µM [2, 10]: 10%
Quadrant (FIG. 5b) ([3]; primary HTS, 10 μM): Q4
Fibrin % cell toxicity ([4]; rat): 1%
LPS % cell toxicity ([5]; rat): 1%

COC1=C(OC)C(=O)C(CCCCCCCCCCO)=C(C)C1=O [Idebenone]
inhibition at 10 µM [1, 19]: -24%
inhibition at 10 µM [2, 20]: 2%
Quadrant (FIG. 5b) [3, 15]: Q4
Fibrin % cell toxicity ([4]; rat): 1%
LPS % cell toxicity ([5]; rat): 0%

CCC1=C(C)CN(C(=O)NCCc2ccc(S(=O)(=O)NC(=O)N[C@H]3CC[C@H](C)CC3)cc2)C1=O [Glimepiride]
inhibition at 10 µM [1, 19]: 0%
inhibition at 10 µM [2, 20]: 21%
Quadrant (FIG. 5b) [3, 15]: Q4
Fibrin % cell toxicity ([4]; rat): 1%
LPS % cell toxicity ([5]; rat): 0%

COc1cccc2c1C(=O)c1c(O)c3c(c(O)c1C2=O)C[C@@](O)(C(C)=O)C[C@@H]3O[C@H]1C[C@H](N)[C@H](O)[C@H](C)O1 [Daunorubicin]
inhibition at 10 µM [1, 13]: 116%
inhibition at 10 µM [2, 14]: 114%
Quadrant (FIG. 5b) [3, 15]: Q2
Fibrin % cell toxicity ([4]; rat): 77%
LPS % cell toxicity ([5]; rat): 57%

CC1=CC(=O)NS(=O)(=O)O1 [Acesulfame Potassium]
inhibition at 10 µM [1]: -3%
inhibition at 10 µM [2, 6]: 16%
Quadrant (FIG. 5b) [3]: Q4
Fibrin % cell toxicity ([4]; rat): 0%
LPS % cell toxicity ([5]; rat): 0%

COc1c2occc2cc2ccc(=O)oc12 [Methoxsalen]
inhibition at 10 µM [1, 13]: -31%
inhibition at 10 µM [2, 14]: 14%
Quadrant (FIG. 5b) [3, 15]: Q4
Fibrin % cell toxicity ([4]; rat): 0%
LPS % cell toxicity ([5]; rat): 0%
